Measured values: paper PMC12530851, “Design, synthesis, and apoptotic antiproliferative activity of novel dihydropyrimidine-5-carbonitrile/1,2,4-oxadiazole hybrids as dual EGFR/VEGFR-2 inhibitors endowed with antioxidant activity” (RSC Advances, 2025)

Assays:
p53 = p53 level assay in MCF-7 cells; format: cell-based, human
Method: Compounds10k and 10l were tested as caspases-3, 8, 9, Bax and p53 activators and as down-regulators of the anti-apoptotic protein Bcl2 against the MCF-7 breast cancer cell line.[41] Appendix A gives more details.
P53's ability to eliminate superfluous, damaged, or contaminated cells by apoptosis is critical for the proper regulation of cell proliferation in multicellular organisms.[49] p53 is activated by both external and internal stress signals, allowing for nuclear accumulation in an active state. As a result, p53 induces either reversible cell growth arrest or apoptosis. The aforesaid activity is necessary for tumor suppression.[50]

[1] = tested on: four human cancer cell lines (A-549, MCF-7, Panc-1, HT-29); test: Antiproliferative assay, average over four cancer cell lines; format: cell-based; settings: for GI50: Homo sapiens, average IC50 across A-549, MCF-7, Panc-1, HT-29
Method: The given findings were obtained from at least two distinct studies, each comprising three repeats per concentration. Appendix A (SI File) provides experimental details.[38,39] […]
4.2.2. Assay for antiproliferative effect
To explore the antiproliferative potential of compounds propidium iodide fluorescence assay was performed using different cell lines such as Panc-1 (pancreas cancer cell line), MCF-7 (breast […]
respectively. To calculate the total nuclear DNA, a fluorescent dye (propidium iodide, PI) is used which can attach to the DNA, thus offering a quick and precise technique. PI cannot pass through the cell membrane and its signal intensity can be considered as directly proportional to quantity of cellular DNA. Cells whose cell membranes are damaged or have changed permeability are counted as dead ones. The assay was performed by seeding the cells of different cell lines at a density of 3000-7500 cells/well (in 200μl medium) in culture plates followed by incubation for 24h at 37 °C […]
The medium was removed; the compounds were added to the plates at 10 μM concentrations (in 0.1% DMSO) in triplicates, followed by incubation for 48h. DMSO (0.1%) was used as control. After incubation, medium was removed followed by the addition of PI (25 μl, 50μg/mL in water/medium) to each well of the plates. At - 80 °C, the plates were allowed to freeze for 24 h, followed by thawing at 25 °C. A fluorometer (Polar-Star BMG Tech) was used to record the readings at excitation and emission wavelengths of 530 and 620 nm for each well. The percentage cytotoxicity of compounds was calculated using […]
Where ATC= Absorbance of treated cells and AC= Absorbance of control. […]
positive control in the assay. […]

Compound	p53 (p53)	GI50 [1]	Potency relative to erlotinib, the other three cell lines ([1]; A-549, Panc-1, HT-29, greater potency than erlotinib)
COc1ccc(-c2noc(CSc3nc(-c4ccc(OC)cc4)c(C#N)c(=O)[nH]3)n2)cc1 [Compound 10l, 2-(((3-(4-Methoxyphenyl)-1,2,4-oxadiazol-5-yl)methyl)thio)-4-(4-methoxyphenyl)-6-oxo-1,6-dihydropyrimidine-5-carbonitrile]	285 ± 2 pg/mL	0.026 µM	–
COc1ccc(-c2nc(SCc3nc(-c4ccc(Cl)cc4)no3)[nH]c(=O)c2C#N)cc1 [Compound 10k, 2-(((3-(4-Chlorophenyl)-1,2,4-oxadiazol-5-yl)methyl)thio)-4-(4-methoxyphenyl)-6-oxo-1,6-dihydropyrimidine-5-carbonitrile]	330 ± 2 pg/mL	0.022 µM	1.3 fold
